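Assay format: 96-well plates, 48-hour exposure. Abbreviation: GI50, concentration required for 50% inhibition of growth.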 Calls of active or inactive are those of the source. Rule as the data show it: active = GI50 up to about 1.1 µM and inactive = higher.
Legend:
Assay in all cases: growth of human tumour cells (NCI), 48 h
MDA-N = system: MDA-N
SF-268 = system: SF-268
NCI/ADR-RES = system: NCI/ADR-RES
LOX IMVI = system: LOX IMVI
NCI-H226 = system: NCI-H226
SF-539 = system: SF-539
HCC 2998 = system: HCC 2998
ACHN = system: ACHN
OVCAR-5 = system: OVCAR-5
DU-145 = system: DU-145
A549 = system: A549
TK-10 = system: TK-10
T47D = system: T47D
Hs-578T = system: Hs-578T
SR = system: SR
EKVX = system: EKVX
SNB-75 = system: SNB-75
PC-3 = system: PC-3
KM12 = system: KM12
SK-OV-3 = system: SK-OV-3
RXF 393 = system: RXF 393
OVCAR-3 = system: OVCAR-3
SK-MEL-28 = system: SK-MEL-28
MDA-MB-231 = system: MDA-MB-231
SK-MEL-2 = system: SK-MEL-2
NCI-H460 = system: NCI-H460
SN12C = system: SN12C
IGROV-1 = system: IGROV-1
CAKI-1 = system: CAKI-1
COLO 205 = system: COLO 205
SNB-19 = system: SNB-19
UACC-257 = system: UACC-257
MCF7 = system: MCF7
MDA-MB-435 = system: MDA-MB-435
SK-MEL-5 = system: SK-MEL-5
CCRF-CEM = system: CCRF-CEM
HT-29 = system: HT-29
MOLT-4 = system: MOLT-4
RPMI-8226 = system: RPMI-8226
U-251 = system: U-251
K562 = system: K562
UACC-62 = system: UACC-62
SW-620 = system: SW-620
M14 = system: M14
Malme-3M = system: Malme-3M
HL-60 = system: HL-60
OVCAR-4 = system: OVCAR-4
OVCAR-8 = system: OVCAR-8
786-0 = system: 786-0
BT-549 = system: BT-549
SF-295 = system: SF-295
HCT-15 = system: HCT-15
HCT-116 = system: HCT-116
UO-31 = system: UO-31
HOP-62 = system: HOP-62
NCI-H23 = system: NCI-H23
A498 = system: A498
HOP-92 = system: HOP-92
NCI-H522 = system: NCI-H522

CCOP(=O)(OCC)C(C)(C)OC(=O)NC(F)(F)F
GI50 (MDA-N): > 100 µM (inactive)
GI50 (SF-268): > 100 µM (inactive)
GI50 (NCI/ADR-RES): > 100 µM (inactive)
GI50 (LOX IMVI): > 100 µM (inactive)
GI50 (NCI-H226): 12.7 µM (inactive)
GI50 (SF-539): > 100 µM (inactive)
GI50 (HCC 2998): > 100 µM (inactive)
GI50 (ACHN): > 100 µM (inactive)
GI50 (OVCAR-5): > 100 µM (inactive)
GI50 (DU-145): > 100 µM (inactive)
GI50 (A549): > 100 µM (inactive)
GI50 (TK-10): > 100 µM (inactive)
GI50 (T47D): > 100 µM (inactive)
GI50 (Hs-578T): > 100 µM (inactive)
GI50 (SR): > 100 µM (inactive)
GI50 (EKVX): > 100 µM (inactive)
GI50 (SNB-75): > 100 µM (inactive)
GI50 (PC-3): > 100 µM (inactive)
GI50 (KM12): > 100 µM (inactive)
GI50 (SK-OV-3): > 100 µM (inactive)
GI50 (RXF 393): > 100 µM (inactive)
GI50 (OVCAR-3): > 100 µM (inactive)
GI50 (SK-MEL-28): > 100 µM (inactive)
GI50 (MDA-MB-231): > 100 µM (inactive)
GI50 (SK-MEL-2): > 100 µM (inactive)
GI50 (NCI-H460): > 100 µM (inactive)
GI50 (SN12C): > 100 µM (inactive)
GI50 (IGROV-1): > 100 µM (inactive)
GI50 (CAKI-1): > 100 µM (inactive)
GI50 (COLO 205): > 100 µM (inactive)
GI50 (SNB-19): > 100 µM (inactive)
GI50 (UACC-257): > 100 µM (inactive)
GI50 (MCF7): > 100 µM (inactive)
GI50 (MDA-MB-435): > 100 µM (inactive)
GI50 (SK-MEL-5): > 100 µM (inactive)
GI50 (CCRF-CEM): > 100 µM (inactive)
GI50 (HT-29): > 100 µM (inactive)
GI50 (MOLT-4): > 100 µM (inactive)
GI50 (RPMI-8226): > 100 µM (inactive)
GI50 (U-251): > 100 µM (inactive)
GI50 (K562): > 100 µM (inactive)
GI50 (UACC-62): > 100 µM (inactive)
GI50 (SW-620): > 100 µM (inactive)
GI50 (M14): > 100 µM (inactive)
GI50 (Malme-3M): > 100 µM (inactive)
GI50 (HL-60): > 100 µM (inactive)
GI50 (OVCAR-4): > 100 µM (inactive)
GI50 (OVCAR-8): > 100 µM (inactive)
GI50 (786-0): > 100 µM (inactive)
GI50 (BT-549): > 100 µM (inactive)
GI50 (SF-295): > 100 µM (inactive)
GI50 (HCT-15): > 100 µM
GI50 (HCT-116): > 100 µM (inactive)
GI50 (UO-31): > 100 µM (inactive)
GI50 (HOP-62): > 100 µM (inactive)
GI50 (NCI-H23): > 100 µM (inactive)

CCOC(=O)c1c(CN2CCNCC2)nc2ccccc2c1-c1ccccc1
GI50 (MDA-N): 10.9 µM (inactive)
GI50 (SF-268): 14 µM (inactive)
GI50 (NCI/ADR-RES): 16.2 µM (inactive)
GI50 (LOX IMVI): 15.8 µM (inactive)
GI50 (NCI-H226): 18.6 µM (inactive)
GI50 (SF-539): 16.8 µM (inactive)
GI50 (HCC 2998): 1.9 µM (inactive)
GI50 (ACHN): 16.8 µM (inactive)
GI50 (OVCAR-5): 16.8 µM (inactive)
GI50 (DU-145): 17.5 µM (inactive)
GI50 (A549): 16.7 µM (inactive)
GI50 (A498): 14.6 µM (inactive)
GI50 (TK-10): 14.3 µM (inactive)
GI50 (T47D): 13.9 µM (inactive)
GI50 (Hs-578T): 16.1 µM (inactive)
GI50 (EKVX): 15.5 µM (inactive)
GI50 (SNB-75): 7.03 µM (inactive)
GI50 (PC-3): 13.4 µM (inactive)
GI50 (KM12): 15.6 µM (inactive)
GI50 (SK-OV-3): 16.5 µM (inactive)
GI50 (RXF 393): 2.92 µM (inactive)
GI50 (OVCAR-3): 17.5 µM (inactive)
GI50 (SK-MEL-28): 11.7 µM (inactive)
GI50 (MDA-MB-231): 15.6 µM (inactive)
GI50 (SK-MEL-2): 15.6 µM (inactive)
GI50 (NCI-H460): 14.3 µM (inactive)
GI50 (SN12C): 14.7 µM (inactive)
GI50 (IGROV-1): 15.3 µM (inactive)
GI50 (CAKI-1): 12.2 µM (inactive)
GI50 (COLO 205): 14.3 µM (inactive)
GI50 (SNB-19): 17.5 µM (inactive)
GI50 (UACC-257): 4.07 µM (inactive)
GI50 (MCF7): 14.3 µM (inactive)
GI50 (MDA-MB-435): 14.3 µM (inactive)
GI50 (SK-MEL-5): 13.6 µM (inactive)
GI50 (CCRF-CEM): 12.7 µM (inactive)
GI50 (HT-29): 5.41 µM (inactive)
GI50 (MOLT-4): 10.8 µM (inactive)
GI50 (RPMI-8226): 14.4 µM (inactive)
GI50 (HOP-92): 4.69 µM (inactive)
GI50 (U-251): 14.3 µM (inactive)
GI50 (K562): 12.6 µM (inactive)
GI50 (UACC-62): 15 µM (inactive)
GI50 (SW-620): 17.1 µM (inactive)
GI50 (M14): 13.4 µM (inactive)
GI50 (Malme-3M): 10.2 µM (inactive)
GI50 (HL-60): 12.9 µM (inactive)
GI50 (OVCAR-4): 15 µM (inactive)
GI50 (OVCAR-8): 15.8 µM (inactive)
GI50 (786-0): 12.7 µM (inactive)
GI50 (NCI-H522): 14.3 µM (inactive)
GI50 (BT-549): 17.2 µM (inactive)
GI50 (SF-295): 15.1 µM (inactive)
GI50 (HCT-15): 16.1 µM
GI50 (HCT-116): 11.4 µM (inactive)
GI50 (UO-31): 7.28 µM (inactive)
GI50 (HOP-62): 16.9 µM (inactive)
GI50 (NCI-H23): 18.7 µM (inactive)

From ChEMBL document CHEMBL1201862, “PubChem BioAssay data set” (2004)
